pIC50, pKd: −log10 of the molar value.
Key:
SPOP^MATH = SPOP^MATH (Homo sapiens, UniProt O43791); assay: fluorescence polarization, displacement of FITC-puc_SBC1 peptide; type: binding
RNF130 = target: T1, RNF130 (Homo sapiens, UniProt Q86XS8); assay: SPR, Biacore T200, amine-coupled RNF130 on CM5 chip; type: binding
T1 sequence (Q86XS8 28-304): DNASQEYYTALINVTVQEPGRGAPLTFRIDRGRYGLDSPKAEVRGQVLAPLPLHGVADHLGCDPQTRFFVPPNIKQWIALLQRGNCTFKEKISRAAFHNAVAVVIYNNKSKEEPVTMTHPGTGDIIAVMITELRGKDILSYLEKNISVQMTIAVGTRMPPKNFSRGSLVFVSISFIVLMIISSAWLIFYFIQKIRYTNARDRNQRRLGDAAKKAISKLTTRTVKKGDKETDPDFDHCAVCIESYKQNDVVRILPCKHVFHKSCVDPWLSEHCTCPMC

Sequence of SPOP^MATH (O43791 28-166): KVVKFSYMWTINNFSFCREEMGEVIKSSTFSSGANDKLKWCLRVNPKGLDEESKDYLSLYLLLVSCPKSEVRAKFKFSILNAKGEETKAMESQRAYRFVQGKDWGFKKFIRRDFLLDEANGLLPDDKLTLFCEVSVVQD

Compound | pIC50 (SPOP^MATH) | pKd (RNF130)
Cc1nnc(SCC2=C(C(=O)O)N3C(=O)C(NC(=O)c4ccc(COc5ccccc5Cl)o4)C3SC2)s1 (stereo not drawn) [221C7] | 5.37 | –
CS(=O)(=O)c1nnc(CN2C3C=C(c4ccccc4)CC2CC3)s1 (stereo not drawn) [iRNF130-63] | – | 5.03
CC(=O)OCC1=C(C(=O)O)N2C(=O)C(NC(=O)c3ccc(COc4ccc(Br)cc4Cl)o3)C2SC1 (stereo not drawn) [230D7, 3-(acetoxymethyl)-7-(5-((4-bromo-2-chlorophenoxy)methyl)furan-2-carboxamido)-8-oxo-5-thia-1-azabicyclo[4.2.0]oct-2-ene-2-carboxylic acid] | 5.06 | –

From publication doi:10.1101/2022.03.26.485909v4 (biorxiv, 2022)
